Assay results as given in patent US20260138959A1, “QUINAZOLINE DERIVATIVE COMPOUND AND USE THEREOF” (VORONOI INC., priority 2021, published 2026).

Key:
c-KIT V560G/D816V = experiment: Proliferation inhibitory activity on Ba/F3 cell (CellTiter-Glo, 72 hours), c-KIT V560G/D816V; type: cell-based; details: Mus musculus, BaF3, c-KIT V560G/D816V cells, read-out: Cell (nM) c-KIT V560G/D816V (GI50 class)
In short: (§1)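 GI50 here reflects 72 h growth inhibition of engineered Ba/F3 lines dependent on PDGFRα, PDGFRβ or c-KIT mutants (D816V, V560G/D816V, D814Y). Compounds spanned 0.00005-10 μM final; CellTiter-Glo read-out.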

Ba/F3-c-KIT(D816V) = experiment: Proliferation inhibitory activity on Ba/F3 cell (CellTiter-Glo, 72 hours), c-KIT(D816V); type: cell-based; details: Mus musculus, BaF3, read-out: Ba/F3 (nM) c-KIT (D816V) (GI50 class)
In short: as §1

c-KIT D814Y = experiment: Proliferation inhibitory activity on Ba/F3 cell (CellTiter-Glo, 72 hours), c-KIT D814Y; type: cell-based; details: Mus musculus, BaF3, c-KIT D814Y cells, read-out: Cell (nM) c-KIT D814Y (GI50 class)
Experimental: (§2) Ba/F3-TEL-PDGFRα(WT), Ba/F3-TEL-PDGFβ(WT), Ba/F3-c-KIT(D816V) (Kyinno, #KC-0138), c-KIT V560G/D816V, c-KIT D814Y were seeded at 3×10^3/100 μl/well in a clear bottom white 96-well plate. A culture solution containing compounds of 12 concentrations (0.00001-2 mM) serially diluted in 3 folds and the DMSO control group was added at 0.5 μl/well each to a final concentration of 0.00005-10 μM, and then incubated in a CO2 incubator at 37° C. for 72 hours. After 72 hours, the plate treated with the compound was taken out, CellTiter-Glo® Assay (Promega) solution was treated with 100 μl/well, followed by mixing well. After mixing well for about 10 minutes at room temperature, […] was measured using a microplate reader. The data were presented as percentages in proportion to treated cells based on the vehicle, GI50 (nM) values were calculated using GraphPad Prism 8.3.0 (GraphPad software Inc., San Diego).
(§3) The inhibitory activities of Ba/F3 expressing PDGFR-α, PDGFR-β, c-KIT(D816V), c-KIT V560G/D816V, and c-KIT D814Y measured as described above were measured and shown in Table 7 below (A: GI50≤200 nM; B: 200 nM<GI50≤500 nM; C: GI50>500 nM).

Ba/F3-TEL-PDGFRα(WT) = experiment: Proliferation inhibitory activity on Ba/F3 cell (CellTiter-Glo, 72 hours), PDGFR-α; type: cell-based; details: Mus musculus, BaF3, read-out: Ba/F3 (nM) Tel-PDGFRα (GI50 class)
Experimental: as §2, §3

human PDGFR-α(wt) = molecular target: T1, human PDGFR-α(wt) (Homo sapiens, UniProt P16234); experiment: Enzyme inhibitory activity, ADP-Glo kinase assay, PDGFR-α(wt); type: biochemical; details: read-out: PDGFR-α (IC50 class)
T1 construct: purchased Signalchem P12-18G
Experimental: In order to evaluate the inhibitory activity of the compounds synthesized according to the above examples on PDGFR-α(wt), PDGFR-β(wt), c-KIT(wt), and c-KIT(D816V) kinases, the following method was performed. The compounds of examples were reacted with purified human PDGFR-α(wt) (Signalchem #P12-18G) enzyme, human PDGFR-β(wt) (Signalchem #P13-11G) enzyme, human c-KIT(wt) (Signalchem #K06-11BG) enzyme, human c-KIT(D816V) (Signalchem #C06-12LG) enzyme, and the enzyme inhibitory abilities were evaluated by the following method.
The reaction buffer was used as a composition of 40 mM Tris-HCl pH7.4, 20 mM MgCl2, 0.5 mg/ml BSA, 50 μM DTT, and the reactions of all the tests were carried out on the reaction buffer. The compound was diluted in 12 steps using a serial dilution method from a 10 mM DMSO stock, and the enzyme activity was measured at a final compound concentration of 10˜0.00005645 μM. During the test, the enzyme activity was confirmed using in vitro ADP-Glo™ kinase assay (Promega) after reacting with the proper concentration of human PDGFR-α(wt) enzyme, human PDGFR-β(wt), human c-KIT(wt) enzyme, and human c-KIT(D816V) enzyme with purified ATP and enzyme substrate at 25° C. for 1˜2 hours. At a ratio of 2:2:1, an enzyme-active reaction solution, an ADP-Glo reaction solution, and an enzyme-active detection solution were reacted to measure the inhibition of the enzyme's activity with luminoscence. Based on the […] of the enzyme activity of the solvent control that was not treated with the compound, the degree of enzyme activity inhibition was calculated according to the treatment concentration of each compound, and the concentration of each compound that inhibits 50% of enzyme activity was determined as IC50 (nM) value and the value was obtained by using GraphPad Prism 8.3.0 (GraphPad software Inc., San Diego) software. (A: IC50≤50 nM; B: 50 nM<IC50≤100 nM; C: 100 nM<IC50≤500 nM; D: IC50>500 nM).

Ba/F3-TEL-PDGFβ(WT) = experiment: Proliferation inhibitory activity on Ba/F3 cell (CellTiter-Glo, 72 hours), PDGFR-β; type: cell-based; details: Mus musculus, BaF3, read-out: Ba/F3 (nM) Tel-PDGFRβ (GI50 class)
Experimental: as §2, §3

human PDGFR-β(wt) = molecular target: T2, human PDGFR-β(wt) (Homo sapiens, UniProt P09619); experiment: Enzyme inhibitory activity, ADP-Glo kinase assay, PDGFR-β(wt); type: biochemical; details: read-out: PDGFR-β (IC50 class)
T2 construct: purchased Signalchem P13-11G
In short: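 Purified human kinases incubated with ATP and substrate 1–2 h at 25 °C in 40 mM Tris-HCl pH 7.4, 20 mM MgCl2, BSA, DTT, compound over 12 concentrations (10–0.00005645 μM final). ADP formed quantified by ADP-Glo luminescence; IC50 from inhibition versus DMSO control, reported in bins A–D.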

various kinases = experiment: Inhibitory activity against various kinases, DiscoverX scanMAX Kinase panel, % control at 1 μM; type: binding
Experimental: The activities of the compounds according to the present disclosure on various enzymes were evaluated. Specifically, it was commissioned DiscoverX to measure enzyme selectivity for the compounds of Examples 3, 9, and 83 above, and the experiment was conducted using a panel for scanMAX™ Kinase analysis. Herein, a solution prepared by dissolving in DMSO at a concentration of 1 μM was used as the drug treated with the enzyme, and the control percentage (% control) was determined by the method of Equation 1 below, and the results are shown in Table 8 below.
Herein, when the calculated percentage value for each enzyme was less than 35%, it was determined to have inhibitory activity for the enzyme. Accordingly, among the series of enzymes tested, the enzymes showing the inhibitory activities of the compounds of the present disclosure are summarized and shown in Table 8 below along with the control percentages thereof. (©): less than 10%; ◯: 10% or more to less than 35%).

T2 sequence (P09619 33-1106): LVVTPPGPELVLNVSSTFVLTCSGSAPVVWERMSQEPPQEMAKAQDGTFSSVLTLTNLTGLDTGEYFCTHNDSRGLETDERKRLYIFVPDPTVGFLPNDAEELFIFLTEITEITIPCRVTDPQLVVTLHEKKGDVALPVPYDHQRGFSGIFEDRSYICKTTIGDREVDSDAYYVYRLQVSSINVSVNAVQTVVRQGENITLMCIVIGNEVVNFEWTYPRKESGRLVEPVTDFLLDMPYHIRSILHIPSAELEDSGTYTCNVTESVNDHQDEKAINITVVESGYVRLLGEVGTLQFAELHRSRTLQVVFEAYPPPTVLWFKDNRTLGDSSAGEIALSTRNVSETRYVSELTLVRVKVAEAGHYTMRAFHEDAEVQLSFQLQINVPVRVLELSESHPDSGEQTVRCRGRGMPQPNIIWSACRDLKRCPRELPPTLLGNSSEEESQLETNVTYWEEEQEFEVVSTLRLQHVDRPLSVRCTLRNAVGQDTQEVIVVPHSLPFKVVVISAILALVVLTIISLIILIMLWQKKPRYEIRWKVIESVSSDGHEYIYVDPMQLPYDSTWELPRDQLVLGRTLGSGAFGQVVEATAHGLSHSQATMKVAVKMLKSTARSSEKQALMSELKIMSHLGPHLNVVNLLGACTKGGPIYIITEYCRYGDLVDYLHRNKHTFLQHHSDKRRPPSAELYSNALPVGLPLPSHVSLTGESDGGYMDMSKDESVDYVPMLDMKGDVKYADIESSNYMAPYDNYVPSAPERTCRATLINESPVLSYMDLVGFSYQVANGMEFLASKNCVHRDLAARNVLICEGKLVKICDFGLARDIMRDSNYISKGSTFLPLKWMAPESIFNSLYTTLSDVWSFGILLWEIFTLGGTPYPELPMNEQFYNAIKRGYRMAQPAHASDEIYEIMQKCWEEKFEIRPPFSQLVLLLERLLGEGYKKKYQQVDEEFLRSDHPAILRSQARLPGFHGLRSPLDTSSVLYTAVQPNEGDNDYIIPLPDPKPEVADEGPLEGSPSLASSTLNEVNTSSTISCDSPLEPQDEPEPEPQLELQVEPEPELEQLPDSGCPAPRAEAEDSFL
T1 sequence (P16234 24-1089): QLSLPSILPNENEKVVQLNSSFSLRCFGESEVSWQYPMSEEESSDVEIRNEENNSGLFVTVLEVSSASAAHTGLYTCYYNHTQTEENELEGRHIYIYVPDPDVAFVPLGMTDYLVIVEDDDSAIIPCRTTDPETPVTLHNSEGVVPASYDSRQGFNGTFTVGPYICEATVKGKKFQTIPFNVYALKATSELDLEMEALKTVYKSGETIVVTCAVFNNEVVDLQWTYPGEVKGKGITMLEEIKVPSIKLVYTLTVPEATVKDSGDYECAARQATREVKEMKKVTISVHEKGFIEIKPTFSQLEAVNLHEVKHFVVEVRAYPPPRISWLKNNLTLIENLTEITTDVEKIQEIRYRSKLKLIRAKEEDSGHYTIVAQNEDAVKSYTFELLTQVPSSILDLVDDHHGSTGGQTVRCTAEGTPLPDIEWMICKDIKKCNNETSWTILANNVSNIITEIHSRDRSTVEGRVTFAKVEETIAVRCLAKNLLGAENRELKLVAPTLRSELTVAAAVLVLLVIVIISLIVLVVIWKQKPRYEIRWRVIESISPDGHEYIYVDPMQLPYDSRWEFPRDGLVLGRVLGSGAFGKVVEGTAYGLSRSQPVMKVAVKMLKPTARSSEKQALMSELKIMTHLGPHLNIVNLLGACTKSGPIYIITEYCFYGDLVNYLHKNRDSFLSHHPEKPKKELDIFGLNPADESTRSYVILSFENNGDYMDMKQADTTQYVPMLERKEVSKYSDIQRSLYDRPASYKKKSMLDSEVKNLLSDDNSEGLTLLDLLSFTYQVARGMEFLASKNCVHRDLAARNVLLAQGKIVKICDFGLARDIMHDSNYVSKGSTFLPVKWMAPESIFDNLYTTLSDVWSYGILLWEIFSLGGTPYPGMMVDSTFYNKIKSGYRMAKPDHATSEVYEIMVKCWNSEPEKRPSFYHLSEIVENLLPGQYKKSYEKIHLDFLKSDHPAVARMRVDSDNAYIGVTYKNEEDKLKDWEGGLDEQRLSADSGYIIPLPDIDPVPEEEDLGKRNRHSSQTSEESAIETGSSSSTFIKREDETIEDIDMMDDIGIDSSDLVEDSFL

GI50 (c-KIT V560G/D816V) [nM] | GI50 (Ba/F3-c-KIT(D816V)) [nM] | GI50 (c-KIT D814Y) [nM] | Compound | other results
200 to 500 | ≤ 200 | ≤ 200 | COc1cc2ncnc(-c3ccc(NC(=O)Cc4ccc(C(F)(F)F)cc4)cc3)c2cc1OC1CNC1 [Example 138, N-(4-(6-(azetidin-3-yloxy)-7-methoxyquinazolin-4-yl)phenyl)-2-(4-(trifluoromethyl)phenyl)acetamide] | –
≤ 200 | ≤ 200 | ≤ 200 | CCN1CCCC(COc2cc3c(-c4ccc(NC(=O)Cc5ccc(C(F)(F)F)cc5)cc4)ncnc3cc2OC)C1 (stereo not shown) [Example 134, N-(4-(6-((1-ethylpiperidin-3-yl)methoxy)-7-methoxyquinazolin-4-yl)phenyl)-2-(4-(trifluoromethyl)phenyl)acetamide] | –
200 to 500 | ≤ 200 | > 500 | COc1cc2ncnc(-c3ccc(NC(=O)Cc4ccc(C(F)(F)F)cc4)cc3)c2cc1OCC1CCCNC1 (stereo not shown) [Example 133, N-(4-(7-methoxy-6-(piperidin-3-ylmethoxy)quinazolin-4-yl)phenyl)-2-(4-(trifluoromethyl)phenyl)acetamide] | –
200 to 500 | ≤ 200 | ≤ 200 | CCN1CC(Oc2cc3c(-c4ccc(NC(=O)Cc5ccc(C(F)(F)F)cc5)cc4)ncnc3cc2OC)C1 [Example 144, N-(4-(6-((1-ethylazetidin-3-yl)oxy)-7-methoxyquinazolin-4-yl)phenyl)-2-(4-(trifluoromethyl)phenyl)acetamide] | –
> 500 | ≤ 200 | > 500 | COc1cc2ncnc(-c3ccc(NC(=O)Cc4ccc(C(F)(F)F)cc4)cc3)c2cc1O[C@@H]1CCOC1 [Example 125, (R)-N-(4-(7-methoxy-6-((tetrahydrofuran-3-yl)oxy)quinazolin-4-yl)phenyl)-2-(4-(trifluoromethyl)phenyl)acetamide] | –
≤ 200 | ≤ 200 | – | COc1cc2c(-c3ccc(NC(=O)Cc4ccc(C#N)cc4)cc3)ncnc2cc1OCCCN1CCN(C)CC1 [Example 83, 2-(4-cyanophenyl)-N-(4-(6-methoxy-7-(3-(4-methylpiperazin-1-yl)propoxy)quinazolin-4-yl)phenyl)acetamide] | GI50 (Ba/F3-TEL-PDGFRα(WT)): ≤ 200 nM; IC50 (human PDGFR-α(wt)): ≤ 0.05 µM; GI50 (Ba/F3-TEL-PDGFβ(WT)): ≤ 200 nM; IC50 (human PDGFR-β(wt)): ≤ 0.05 µM; control percentage (% control), KIT (various kinases; KIT): ⊚; control percentage (% control), KIT (A829P) (various kinases; KIT (A829P)): ⊚; control percentage (% control), KIT (D816H) (various kinases; KIT (D816H)): ⊚; control percentage (% control), KIT (D816V) (various kinases; KIT (D816V)): ⊚; control percentage (% control), KIT (L576P) (various kinases; KIT (L576P)): ⊚; control percentage (% control), KIT (V559D) (various kinases; KIT (V559D)): ⊚; control percentage (% control), KIT (V559D, T670I) (various kinases; KIT (V559D, T670I)): ◯ (◯: 10% or more to less than 35%); control percentage (% control), KIT (V559D, V654A) (various kinases; KIT (V559D, V654A)): ◯ (◯: 10% or more to less than 35%); control percentage (% control), PDGFRA (various kinases; PDGFRA): ⊚; control percentage (% control), PDGFRB (various kinases; PDGFRB): ⊚
200 to 500 | ≤ 200 | ≤ 200 | CCN1CCC(Oc2cc3c(-c4ccc(NC(=O)Cc5ccc(C(F)(F)F)cc5)cc4)ncnc3cc2OC)C1 (stereo not shown) [Example 145, N-(4-(6-((1-ethylpyrrolidin-3-yl)oxy)-7-methoxyquinazolin-4-yl)phenyl)-2-(4-(trifluoromethyl)phenyl)acetamide] | –
≤ 200 | ≤ 200 | ≤ 200 | COc1cc2c(-c3ccc(NC(=O)Cc4ccc(C(F)(F)F)cc4)cc3)ncnc2cc1OCCCN1CC(N(C)C)C1 [Example 22, N-(4-(7-(3-(3-(dimethylamino)azetidine-1-yl)propoxy)-6-methoxyquinazolin-4-yl)phenyl)-2-(4-(trifluoromethyl)phenyl)acetamide] | –
≤ 200 | ≤ 200 | ≤ 200 | COc1cc2ncnc(-c3ccc(NC(=O)Cc4ccc(C(F)(F)F)cc4)cc3)c2cc1OCCCN1CCN(C)CC1 [Example 126, N-(4-(7-methoxy-6-(3-(4-methylpiperazin-1-yl)propoxy)quinazolin-4-yl)phenyl)-2-(4-(trifluoromethyl)phenyl)acetamide] | –
